Measured values reported in patent US5219884A, “Immunosuppressant” (Taito Co., Ltd., priority 1990, dated 1993).
Where two headings read alike, the source gives them in different places.

Assays:
K562 = assay: in vitro; format: cell-based, human
Experimental: (§1) Cytotoxicity to human tumor cell lines was examined as follows:
(§2) Cells of human cell lines, K562, MOLT4, U937, HL60, KATOIII, KB, PC-6, PC-14 and CCRF-CEM were separately suspended to the concentration of 2×10^5 cells/ml in the RPMI1640 culture medium supplemented with 20% FCS. Fifty μl of this suspension was added to each well of 96-well microculture plates to which 50 μl of the test solution had been added. After culturing at 37° C. in an atmosphere of 5% carbon dioxide for 72 hours, the absorbancy at 550 nm was measured in the same way as the colorimetry using MTT in Experimental Example 1, and the percent suppression was calculated in the same manner as in Experimental Example 14, which was used as the index of cytotoxicity.

in vitro = format: cell-based, human; conditions: human, read-out: Suppression
Experimental: as §1, §2

HL60 = assay: in vitro; format: cell-based, human
Experimental: as §1, §2

KB = assay: in vitro; format: cell-based, human
Experimental: as §1, §2

U937 = assay: in vitro; format: cell-based, human
Experimental: as §1, §2

PC-14 = assay: in vitro; format: cell-based, human
Experimental: as §1, §2

CCRF-CEM = assay: in vitro; format: cell-based, human
Experimental: as §1, §2

[1] = cytotoxicity to tumor cell line MOLT4; format: cell-based, human; conditions: human, molt4 cells, read-out: Suppression
Experimental: as §1, §2

MOLT4 = assay: cytotoxicity to tumor cell line MOLT4; format: cell-based, human
Experimental: as §1, §2

[2] = test system: mouse allogenic mixed lymphocyte reaction (BALB/c responder, C57BL/6 stimulator spleen cells); assay: mouse allogenic mixed lymphocyte reaction (MLR), blastogenesis by 3H-thymidine uptake; format: cell-based
Experimental: The immunosuppressive activity of the compounds (I) and their lactones was assayed by using mouse allogenic mixed lymphocyte reaction (hereinafter sometimes abbreviated as MLR). Mouse allogenic MLR was carried out by mixed culture of the BALB/c mouse (H-2^d) spleen cells as the responder cells and the mitomycin C-treated C57BL/6 (H-2^b) spleen cells as the stimulator cells in equal amounts.
The responder cells were prepared as follows: The spleen was resected from 5- to 6-week-old male BALB/c mice, and single cell suspension of spleen cells was prepared by using the RPMI1640 culture medium (containing 60 μg/ml of kanamycin sulfate, 2 mM of L-glutamine, 10 mM of N-2-hydroxyethylpiperazine-N'-2-ethanesulfonate (HEPES) and 0.1% sodium hydrogencarbonate) to which heat-inactivated fetal calf serum (hereinaftersometimes abbreviated as FCS) had been added to 5%. After hemolytic treatment, the cell suspension was adjusted to a concentration of 10^7 cells/ml by using the RPMI1640 culture medium supplemented with 10^-4 M 2-mercaptoethanol and 20% FCS, and was used as the responder cell suspension.
The stimulator cells were prepared as follows:
The spleen was resected from 5- to 6-week-old male C57BL/6 mice, and single cell suspension of spleen cells was prepared by using the RPMI1640 culture medium. After hemolytic treatment, the cells were treated with 40 μg/ml of mitomycin C at 37° C. for 60 minutes. After washing three times, the concentration of the cell suspension was adjusted to 10^7 cells/ ml by using the RPMI1640 culture medium supplemented with 10^-4 M 2-mercaptoethanol and 20% FCS, and was used as the stimulator cell suspension.
Fifty μl of the responder cell suspension, 50μl of the stimulator cell suspension prepared by the above method, and 100 μl of the test substance were placed in 96-well microculture plates, and were cultured at 37° C. in an atmosphere of 5% carbon dioxide for 4 days.
The blastogenesis of lymphocytes was assayed by a method of ^3 H-thymidine uptake as an index. That is, after termination of the culture, 0.5 μCi/well of ^3 H-thymidine was added and cultured for 4 hours. Cells were harvested by a cell-harvester, and the radioactivity incorporated into the cells was determined by a liquid scintillation counter to obtain the index of blastogenesis of lymphocytes in the mouse allogenic MLR. The suppression of the mouse allogenic MLR was evaluated by calculating the percent suppression by the following formula. [formula]
The test substance was dissolved in methanol or suspended in a mixture of methanol and acetic acid, and then diluted with the RPMI1640 culture medium.

[3] = cytotoxicity to mouse L929 cells; format: cell-based; conditions: mouse, l929 cells, read-out: Suppression
Experimental: (§3) Cytotoxicity to mouse L929 cells was assayed as follows:
(§4) L929 cells were suspended to the concentration of 1.5×10^5 cells/ml in the F12 culture medium supplemented with 10% FCS. One hundred μl of the suspension was added to each well of 96-well microculture plates, and cultured at 37° C. in an atmosphere of 5% carbon dioxide for 24 hours, to which 100 μl of the test solution was added and cultured for further 48 hours. After the culture, 100 μl of the supernatant was removed and the absorbancy at 550 nm was measured in the same way as the colormetry using MTT in Experimental Example 1. The percent suppression was calculated by the following formula used as the index of cytotoxicity. [formula]

mouse L929 cells = assay: cytotoxicity to mouse L929 cells; format: cell-based; conditions: 550 nm
Experimental: as §3, §4

`CCCCCCC(O)CCCCCC/C=C/CC(O)C(O)C(N)(CO)C(=O)O` (stereo not drawn) [Example 6] gave an Absorbancy (K562; 0.1 μg/ml) of 0.823, an Absorbancy (K562; 1.0 μg/ml) of 0.798 and an Absorbancy (K562; 10.0 μg/ml) of 0.811. For the same molecule, the cytotoxicity at 72 h (in vitro; ccrf-cem cells, 0.1 μg/ml) was 8%, the cytotoxicity at 72 h (in vitro; ccrf-cem cells, 1.0 μg/ml) was 9.1% and the cytotoxicity at 72 h (in vitro; ccrf-cem cells, 10.0 μg/ml) was 5.6%. The cytotoxicity at 72 h (in vitro; hl60 cells, 0.1 μg/ml) was 16%, the cytotoxicity at 72 h (in vitro; hl60 cells, 1.0 μg/ml) was 21% and the cytotoxicity at 72 h (in vitro; hl60 cells, 10.0 μg/ml) was 17%. For the same molecule, the cytotoxicity at 72 h (in vitro; k562 cells, 0.1 μg/ml) was 1.6%, the cytotoxicity at 72 h (in vitro; k562 cells, 1.0 μg/ml) was 4.5% and the cytotoxicity at 72 h (in vitro; k562 cells, 10.0 μg/ml) was 3%. The cytotoxicity at 72 h (in vitro; kb cells, 0.1 μg/ml) was 0%, the cytotoxicity at 72 h (in vitro; kb cells, 1.0 μg/ml) was 0.3% and the cytotoxicity at 72 h (in vitro; kb cells, 10.0 μg/ml) was 3.2%. For the same molecule, the cytotoxicity at 72 h (in vitro; pc-14 cells, 0.1 μg/ml) was 21.5%, the cytotoxicity at 72 h (in vitro; pc-14 cells, 1.0 μg/ml) was 14.6% and the cytotoxicity at 72 h (in vitro; pc-14 cells, 10.0 μg/ml) was 25.9%. For the same molecule, the cytotoxicity at 72 h (in vitro; u937 cells, 0.1 μg/ml) was 14%, the cytotoxicity at 72 h (in vitro; u937 cells, 1.0 μg/ml) was 9.9% and the cytotoxicity at 72 h (in vitro; u937 cells, 10.0 μg/ml) was 10.1%. The Absorbancy (HL60; 0.1 μg/ml) was 0.619, the Absorbancy (HL60; 1.0 μg/ml) was 0.589 and the Absorbancy (HL60; 10.0 μg/ml) was 0.627. The Absorbancy (KB; 0.1 μg/ml) was 0.771, the Absorbancy (KB; 1.0 μg/ml) was 0.728 and the Absorbancy (KB; 10.0 μg/ml) was 0.707. The Absorbancy (U937; 0.1 μg/ml) was 0.439, the Absorbancy (U937; 1.0 μg/ml) was 0.436 and the Absorbancy (U937; 10.0 μg/ml) was 0.435. It also gave an Absorbancy (PC-14; 0.1 μg/ml) of 0.372, an Absorbancy (PC-14; 1.0 μg/ml) of 0.405 and an Absorbancy (PC-14; 10.0 μg/ml) of 0.351. It also gave an Absorbancy (CCRF-CEM; 0.1 μg/ml) of 0.463, an Absorbancy (CCRF-CEM; 1.0 μg/ml) of 0.457 and an Absorbancy (CCRF-CEM; 10.0 μg/ml) of 0.475. For the same molecule, the cytotoxicity at 72 h ([1]; 0.1 μg/ml) was 0.8%, the cytotoxicity at 72 h ([1]; 1.0 μg/ml) was 3.4% and the cytotoxicity at 72 h ([1]; 10.0 μg/ml) was 8.5%. The Absorbancy (MOLT4; 0.1 μg/ml) was 0.615, the Absorbancy (MOLT4; 1.0 μg/ml) was 0.599 and the Absorbancy (MOLT4; 10.0 μg/ml) was 0.567. For the same molecule, the 3H-thymidine uptake ([2]; 0.001 μg/ml) was 16237 cpm, the 3H-thymidine uptake ([2]; 0.01 μg/ml) was 9276 cpm and the 3H-thymidine uptake ([2]; 0.1 μg/ml) was 3017 cpm. It also gave an inhibition at 0.001 µg/mL ([2]; Mus musculus, Lymphocyte, 0.001 μg/ml, read-out: Suppression) of 52.3%, an inhibition at 0.01 µg/mL ([2]; Mus musculus, Lymphocyte, 0.01 μg/ml, read-out: Suppression) of 85.4% and an inhibition at 0.1 µg/mL ([2]; Mus musculus, Lymphocyte, 0.1 μg/ml, read-out: Suppression) of 100%. The cytotoxicity at 48 h ([3]; 0.1 μg/ml) was 0%, the cytotoxicity at 48 h ([3]; 1 μg/ml) was 0% and the cytotoxicity at 48 h ([3]; 10 μg/ml) was 0%. The Absorbancy (mouse L929 cells; 0.1 μg/ml) was 0.732, the Absorbancy (mouse L929 cells; 1 μg/ml) was 0.714 and the Absorbancy (mouse L929 cells; 10 μg/ml) was 0.733.
